Results reported in article PMC10866072, “Design, synthesis, molecular modelling and biological evaluation of novel 6-amino-5-cyano-2-thiopyrimidine derivatives as potent anticancer agents against leukemia and apoptotic inducers” (Journal of Enzyme Inhibition and Medicinal Chemistry, 2024).

Key:
RPMI-8226 = format: cell-based
UO-31 = format: cell-based
COLO 205 = format: cell-based
SF-295 = format: cell-based
MDA-MB-231/ATCC = format: cell-based
PC-3 = format: cell-based
CCRF-CEM = format: cell-based
LOX IMVI = format: cell-based
HT29 = format: cell-based
[1] = MTT cytotoxicity on normal cells; format: cell-based; conditions: human, WI-38 cells (normal lung fibroblasts), WI-38 normal cells, mean ± SD of three experiments, read-out: IC50 (cytotoxic activity)
Experimental: The American Type Culture Collection provided WI-38 cells (normal lung cells). The cells were grown in DMEM with 10% heat-inactivated FBS (Hyclone), 10 µg/ml of insulin (Sigma), and 1% penicillin-streptomycin. The remaining chemicals and reagents were all from Sigma or Invitrogen. The MTT test was used to evaluate cytotoxicity, as described previously. Graph pad Prism software (San Diego, CA) was used to estimate the 50% inhibitory concentration (IC50) from dose response curve graphic plots for each conc.

SK-MEL-2 = format: cell-based
SF-539 = format: cell-based
NCI-H522 = format: cell-based
CNS Cancer cell lines = assay: NCI-60 five-dose, subpanel
From the text: Furthermore, the average sensitivity of all cell lines to the compound is termed as the full panel mean graph midpoints (MG-MID). The complete panel mean graph midpoints refers to the average sensitivity of all cell lines to the chemical (MG-MID). A measure of a compound’s selectivity for a given cell line is the ratio created by dividing the full panel mean graph midpoints (MG-MID) concentration by the individual subpanel MG-MID concentrations (obtained as the average sensitivity of all the cell lines in a given subpanel to the test compound).
Assessment of selectivity of a compound depends on the ratio obtained by dividing the full panel MID ^a by their individual subpanel MID ^b (µM) where MID^a is the average sensitivity of all cell lines towards the test agent (µM).

TK-10 = format: cell-based
UACC-257 = format: cell-based
MCF7 = format: cell-based
HCT-116 = format: cell-based
HS 578T = format: cell-based
MOLT-4 = format: cell-based
UACC-62 = format: cell-based
U251 = format: cell-based
786-0 = format: cell-based
PI3Kδ = target: T1, PI3Kδ (Homo sapiens, UniProt O00329); assay: PI3 Kinase Activity/Inhibitor Assay Kit; format: biochemical; conditions: mean of two independent replicates ± SD
T1 construct: purchased Millipore Corporation 17-493 (assay kit)
Experimental: In vitro PI3 kinases inhibitory activity assay
All buffers, working standards and samples were prepared.
A total of 5 μl/well 5X kinase reaction buffer was added following the addition of the substrate, then distilled water was added to fill up to 25 μl. After incubation for 1 h at room temperature, 25 μl of biotinylated PIP3/EDTA working solution was added to all wells except the buffer control. Instead, 25 μl tris-buffered saline (TBS) was added to the buffer control wells. A general receptor phosphoinsitides -1 working solution was added to all wells then, was incubated for 1 h at room temperature. After incubation, all wells were washed with 200 μl 1X TBS -Tween followed by addition of 50 μl (horseradish peroxide as econjugated streptavidin) SA -HRP then were incubated for 1 h at room temperature. All wells were washed using 100 μl 1X TBS -Tween and TBS followed by addition of 100 μl of substrate 3,3’,5,5’-tetramethylbenzidine and kept in dark for 5–20 min.

KM12 = format: cell-based
SR = format: cell-based
CAKI-1 = format: cell-based
[2] = Homo sapiens, one dose 10^-5 M, 48 h
[3] = Homo sapiens, five-dose, read-out: LC50 (the source's name)
[4] = Homo sapiens, one dose 10^-5 M, 48 h, read-out: % growth

T1 sequence (O00329 whole entry): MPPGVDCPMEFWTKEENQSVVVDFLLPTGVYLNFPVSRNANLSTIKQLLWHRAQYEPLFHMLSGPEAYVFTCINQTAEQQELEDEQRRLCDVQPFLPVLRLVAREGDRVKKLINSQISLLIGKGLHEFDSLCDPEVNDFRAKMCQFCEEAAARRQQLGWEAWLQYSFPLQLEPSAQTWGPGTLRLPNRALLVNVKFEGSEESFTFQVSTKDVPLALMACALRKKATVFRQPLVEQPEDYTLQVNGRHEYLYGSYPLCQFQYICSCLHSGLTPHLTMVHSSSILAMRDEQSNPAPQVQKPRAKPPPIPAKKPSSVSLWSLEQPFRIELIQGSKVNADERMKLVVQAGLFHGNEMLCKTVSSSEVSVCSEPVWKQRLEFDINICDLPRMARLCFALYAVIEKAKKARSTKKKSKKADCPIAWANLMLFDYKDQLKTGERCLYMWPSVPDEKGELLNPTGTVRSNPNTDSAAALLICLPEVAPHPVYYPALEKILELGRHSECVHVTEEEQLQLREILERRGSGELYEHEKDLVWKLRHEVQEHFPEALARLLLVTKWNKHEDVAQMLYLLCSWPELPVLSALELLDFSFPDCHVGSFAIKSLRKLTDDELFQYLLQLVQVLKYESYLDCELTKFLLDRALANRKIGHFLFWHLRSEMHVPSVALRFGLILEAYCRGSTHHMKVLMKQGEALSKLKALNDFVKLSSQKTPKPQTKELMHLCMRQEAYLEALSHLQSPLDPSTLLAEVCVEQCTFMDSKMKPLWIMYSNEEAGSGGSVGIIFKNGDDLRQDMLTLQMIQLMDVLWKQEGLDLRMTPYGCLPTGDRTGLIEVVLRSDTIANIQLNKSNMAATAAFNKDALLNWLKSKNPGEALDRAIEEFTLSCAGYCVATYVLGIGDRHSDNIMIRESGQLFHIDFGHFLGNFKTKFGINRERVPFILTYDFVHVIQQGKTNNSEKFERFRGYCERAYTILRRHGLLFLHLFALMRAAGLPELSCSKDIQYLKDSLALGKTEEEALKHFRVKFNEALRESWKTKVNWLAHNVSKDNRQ
T1 sequence (P27986 whole entry partner): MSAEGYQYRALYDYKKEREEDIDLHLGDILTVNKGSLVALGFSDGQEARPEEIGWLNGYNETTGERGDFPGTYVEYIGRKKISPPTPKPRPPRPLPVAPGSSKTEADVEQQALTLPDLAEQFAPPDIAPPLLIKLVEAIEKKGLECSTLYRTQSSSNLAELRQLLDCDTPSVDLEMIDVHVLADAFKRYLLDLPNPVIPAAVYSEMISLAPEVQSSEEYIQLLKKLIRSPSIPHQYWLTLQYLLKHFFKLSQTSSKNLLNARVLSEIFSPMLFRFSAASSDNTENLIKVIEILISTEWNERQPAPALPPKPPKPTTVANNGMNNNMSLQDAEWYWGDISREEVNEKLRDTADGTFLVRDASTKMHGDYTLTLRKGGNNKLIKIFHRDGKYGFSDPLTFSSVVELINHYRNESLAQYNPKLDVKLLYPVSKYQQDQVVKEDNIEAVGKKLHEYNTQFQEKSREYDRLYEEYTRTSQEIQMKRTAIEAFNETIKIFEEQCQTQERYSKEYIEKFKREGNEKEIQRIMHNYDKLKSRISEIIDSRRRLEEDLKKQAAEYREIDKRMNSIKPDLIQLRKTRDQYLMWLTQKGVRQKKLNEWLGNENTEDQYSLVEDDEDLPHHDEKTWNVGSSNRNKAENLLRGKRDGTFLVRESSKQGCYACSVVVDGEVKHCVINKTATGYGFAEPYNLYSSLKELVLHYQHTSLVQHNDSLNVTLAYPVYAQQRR

## N#Cc1c(N)nc(S)nc1-c1ccc(Cl)cc1Cl [Compound 1c, 4-Amino-6–(2,4-dichlorophenyl)-2-mercaptopyrimidine-5-carbonitrile]
RPMI-8226; Homo sapiens, five-dose
  GI50: 0.6 µM
  LC50: > 100 µM
RPMI-8226; [2]
  % growth at 10 µM: 9.51%
RPMI-8226; five-dose
  TGI: 27.50 µM
UO-31; Homo sapiens, UO-31, 48 h, one dose 10^-5 M, 48 h
  % cell growth at 10 µM: 63.5%
UO-31; Homo sapiens, five-dose
  GI50: 14.7 µM
UO-31; [3]
  CC50: 53.6 µM
UO-31; five-dose
  TGI: 28.10 µM
COLO 205; Homo sapiens, five-dose
  GI50: 19 µM
COLO 205; [3]
  CC50: 70 µM
COLO 205; [2]
  % growth at 10 µM: 80.5%
COLO 205; five-dose
  TGI: 36.50 µM
SF-295; Homo sapiens, five-dose
  GI50: 10.4 µM
SF-295; [3]
  CC50: 49 µM
SF-295; [2]
  % cell growth at 10 µM: 78.1%
SF-295; five-dose
  TGI: 22.60 µM
MDA-MB-231/ATCC; Homo sapiens, five-dose
  GI50: 13.1 µM
  LC50: 58.1 µM
MDA-MB-231/ATCC; [2]
  % growth at 10 µM: 51.9%
MDA-MB-231/ATCC; five-dose
  TGI: 27.60 µM
PC-3; Homo sapiens, five-dose
  GI50: 11.1 µM
PC-3; [3]
  CC50: > 100 µM
PC-3; [2]
  percent cell growth at 10 µM: 49.8%
PC-3; five-dose
  TGI: 48.20 µM
CCRF-CEM; Homo sapiens, five-dose
  GI50: 0.3 µM
  LC50 (concentration killing 50% of tumour cells): > 100 µM
CCRF-CEM; [2]
  % cell growth at 10 µM: 7.65%
CCRF-CEM; five-dose
  TGI: 16.10 µM
LOX IMVI; Homo sapiens, five-dose
  GI50: 1.1 µM
LOX IMVI; [3]
  CC50: 40 µM
LOX IMVI; [4]
  activity at 10 µM: -49.2%
LOX IMVI; five-dose
  TGI: 15.10 µM
LOX IMVI; one dose 10^-5 M, 48 h
  % growth: -49.21%
HT29; Homo sapiens, HT-29, five-dose
  GI50: 13.8 µM
HT29; Homo sapiens, HT-29, five-dose, read-out: LC50 (the source's name)
  CC50: 68.9 µM
HT29; Homo sapiens, HT-29, one dose 10^-5 M, 48 h
  % growth at 10 µM: 24.7%
HT29; five-dose
  TGI: 30.80 µM
[1]
  IC50: 43.6 ± 1.2 µM
SK-MEL-2; Homo sapiens, five-dose
  GI50: 17.5 µM
  LC50: 66.8 µM
SK-MEL-2; [2]
  % growth at 10 µM: 98.6%
SK-MEL-2; five-dose
  TGI: 34.20 µM
SF-539; Homo sapiens, five-dose
  GI50: 10.8 µM
SF-539; [3]
  CC50: 52.4 µM
SF-539; [2]
  % growth at 10 µM: 39.9%
SF-539; five-dose
  TGI: 23.80 µM
NCI-H522; Homo sapiens, five-dose
  GI50: 15.4 µM
NCI-H522; [3]
  CC50: 61.3 µM
NCI-H522; [2]
  % growth at 10 µM: 49.4%
NCI-H522; five-dose
  TGI: 30.70 µM
CNS Cancer cell lines; CNS cancer
  Selectivity ratio (full panel MID^a / subpanel MID^b, GI50 level): 1.04
CNS Cancer cell lines; Homo sapiens, read-out: GI50 Subpanel MID^b
  GI50: 12.4 µM
TK-10; Homo sapiens, five-dose
  GI50: 21.5 µM
  LC50 (50% lethal concentration): > 100 µM
TK-10; [2]
  % cell growth at 10 µM: 114%
TK-10; five-dose
  TGI: 50.20 µM
UACC-257; Homo sapiens, five-dose
  GI50: 14.7 µM
UACC-257; [3]
  CC50: 67.2 µM
UACC-257; [2]
  percent cell growth at 10 µM: 77.7%
UACC-257; five-dose
  TGI: 31.50 µM
MCF7; Homo sapiens, five-dose
  GI50: 0.12 µM
MCF7; [3]
  CC50: > 100 µM
MCF7; [4]
  activity at 10 µM: 31.6%
MCF7; five-dose
  TGI: 31.10 µM
HCT-116; Homo sapiens, five-dose
  GI50: 0.06 µM
HCT-116; [3]
  CC50: 63.6 µM
HCT-116; [4]
  activity at 10 µM: -18.8%
HCT-116; five-dose
  TGI: 17.90 µM
HCT-116; one dose 10^-5 M, 48 h
  % growth: -18.77%
HS 578T; Homo sapiens, five-dose, HS 578 T
  GI50: 18.8 µM
HS 578T; Homo sapiens, five-dose, HS 578 T, read-out: LC50 (the source's name)
  CC50: > 100 µM
HS 578T; Homo sapiens, one dose 10^-5 M, 48 h, HS 578T, read-out: % growth
  activity at 10 µM: 75.3%
HS 578T; five-dose, HS 578 T
  TGI: 92.60 µM
MOLT-4; Homo sapiens, five-dose
  GI50: 0.7 µM
MOLT-4; [3]
  CC50: > 100 µM
MOLT-4; [4]
  activity at 10 µM: 6.11%
MOLT-4; five-dose
  TGI: 43.90 µM
UACC-62; Homo sapiens, five-dose
  GI50: 13.8 µM
UACC-62; [3]
  CC50: 57.6 µM
UACC-62; [2]
  % growth at 10 µM: 62.7%
UACC-62; five-dose
  TGI: 28.20 µM
U251; Homo sapiens, U-251, five-dose
  GI50: 13.4 µM
U251; Homo sapiens, U-251, five-dose, read-out: LC50 (the source's name)
  CC50: 68.9 µM
U251; Homo sapiens, U-251, one dose 10^-5 M, 48 h
  % growth at 10 µM: 38.8%
U251; five-dose
  TGI: 30.40 µM
786-0; Homo sapiens, five-dose
  GI50: 17.5 µM
786-0; [3]
  CC50: 99.1 µM
786-0; [2]
  % growth at 10 µM: 67%
786-0; five-dose
  TGI: 41.60 µM
PI3Kδ
  IC50: 0.0034 ± 0.004 µM
KM12; Homo sapiens, five-dose
  GI50: 19 µM
  LC50: 80.1 µM
KM12; [2]
  % growth at 10 µM: 49.5%
KM12; five-dose
  TGI: 39.00 µM
SR; Homo sapiens, five-dose
  GI50: 0.14 µM
SR; [3]
  CC50: > 100 µM
SR; [2]
  percent cell growth at 10 µM: 2.54%
SR; five-dose
  TGI: 23.70 µM
CAKI-1; Homo sapiens, CAKI-1, 48 h, one dose 10^-5 M, 48 h
  % growth at 10 µM: 72.3%
CAKI-1; Homo sapiens, five-dose
  GI50: 18.4 µM
CAKI-1; [3]
  CC50: > 100 µM
CAKI-1; five-dose
  TGI: 45.70 µM
